According to publication PMC7113770 (Antiviral Research, 2018):
Where two headings read alike, the source gives them in different places.

Legend:
different HEV constructs = experiment: Different HEV subgenomic replicons in Huh7.5; conditions: Hepatitis E virus
[1] = test system: HCV JFH1 subgenomic replicon; experiment: HCV JFH1 subgenomic replicon replication in Huh7.5; conditions: for IC50 / IC90: Hepatitis C virus; for IC50: read-out: IC50 (CI); for IC90: read-out: IC90 (CI)
full-length HEV p6 clone = experiment: Full-length p6 clone, ORF2 immunofluorescence in Huh7.5; format: cell-based, Hepatitis E virus; conditions: silvestrol 10 nM or RBV, 42 h, added 4 h after transfection
[2] = test system: HEVp6 replicon (Kernow-C1 p6, gt3); experiment: HEVp6 subgenomic replicon; conditions: for IC90: read-out: IC90 (CI)
[3] = test system: HEV Sar55/S17 replicon (gt1); experiment: HEV Sar55/S17 subgenomic replicon replication in Huh7.5
[4] = MTT cell viability assay in transfected Huh7.5; format: cell-based, human; conditions: human, transfected Huh7.5 cells, CC50 (CI), 42 h treatment, Huh7.5, CI 95%
Huh7.5 cells [5] = experiment: MTT cell viability assay in transfected Huh7.5; format: cell-based, human
HepG2/C3A cells = experiment: MTT cell viability in HEVCC infection assay; format: cell-based, human; conditions: silvestrol 10, 20, 50 nM, all treatment setups
Huh7.5 cells [6] = experiment: Trypan blue exclusion viable cell counting; format: cell-based, human; conditions: silvestrol 10 nM and 100 nM, 24 h, vs untreated cells
[7] = test system: hepatocyte-like cells (HLCs); experiment: WST cell viability in hepatocyte-like cells; format: cell-based, human; conditions: 10 nM silvestrol for 24 h
Ebola virus = conditions: read-out: IC50 Ebola virus replication; cited from earlier work
[8] = 0.3 mg/kg daily intraperitoneal, monitored period
gt1 HEV (strain Sar-55) = format: in vivo; conditions: 0.3 mg/kg daily intraperitoneal, ten or six days, first days of treatment
[9] = Hepatitis E virus, GT3, Huh7.5, 24 h, read-out: IC50 (CI), 24 h treatment, Huh7.5, CI 95%
[10] = Hepatitis E virus, GT3, Huh7.5, 24 h
[11] = Hepatitis E virus, GT3, Huh7.5, 42 h, read-out: IC50 (CI), 42 h treatment, Huh7.5, CI 95%
[12] = Hepatitis E virus, GT3, Huh7.5, 42 h
[13] = Hepatitis E virus, GT1, Huh7.5, 24 h, read-out: IC50 (CI), 24 h treatment, Huh7.5, CI 95%
[14] = Hepatitis E virus, GT1, Huh7.5, 42 h, read-out: IC50 (CI), 42 h treatment, Huh7.5, CI 95%

NC(=O)c1ncn([C@@H]2O[C@H](CO)[C@@H](O)[C@H]2O)n1 [Ribavirin]
IC50 (different HEV constructs; GT1, Huh7.5, 24 h, read-out: IC50 HEV replication): 8000 to 12000 nM | IC50 ([1]; Huh7.5, 24 h): 12300 nM | IC90 ([1]; Huh7.5, 24 h): 128000 nM | IC50 ([1]; Huh7.5, 42 h): 62500 nM | ORF2 positive cells (immunofluorescence) (full-length HEV p6 clone): highly reduced | IC50 [2, 9]: 8160 nM | IC90 [2, 10]: 244000 nM | IC50 [2, 11]: 6900 nM | IC90 [2, 12]: 50400 nM | IC50 [3, 13]: 43000 nM | IC50 [3, 14]: 30300 nM | IC50 ([3]; read-out: IC50 (CI), 24 h treatment, Huh7.5, CI 95%): 43100 nM

COC(=O)[C@H]1[C@@H](O)[C@@]2(O)c3c(OC)cc(O[C@@H]4O[C@@H]([C@H](O)CO)CO[C@H]4OC)cc3O[C@@]2(c2ccc(OC)cc2)[C@@H]1c1ccccc1 [Silvestrol, silvestrol]
IC50 (different HEV constructs; Huh7.5, 24 h, read-out: IC50 for the different HEV constructs): 4 to 6.6 nM | CC50 at 42 h [4]: 24.8 nM | cytotoxic concentration 50 (CC50) (Huh7.5 cells [5]; 24 h treatment, Huh7.5): did not reach a cytotoxic concentration 50 (CC50) | CC50 (Huh7.5 cells [5]; read-out: CC50 (CI), 42 h treatment, Huh7.5, CI 95%): 24.8 nM | IC50 ([1]; Huh7.5, 24 h): 24.3 nM | IC90 ([1]; Huh7.5, 24 h): 128 nM | IC50 ([1]; Huh7.5, 42 h): 71.1 nM | IC90 ([1]; Huh7.5, 42 h): 518 nM | susceptibility of HCV reference replicon compared with HEV ([1]; Huh7.5, 24 h): less susceptible | cell viability (MTT) (HepG2/C3A cells): not reduced | viable cells (trypan blue cell counting) (Huh7.5 cells [6]): no significant reductions | ORF2 positive cells (immunofluorescence) (full-length HEV p6 clone): highly reduced | cytotoxicity (WST assay) in HLCs [7]: without cytotoxicity | IC50 (Ebola virus): < 1 nM | selectivity index ([2]; 42 h, p6 strain, CC50/IC50): about 8.6 | IC50 [2, 9]: 4.43 nM | IC90 [2, 10]: 64.7 nM | IC50 [2, 11]: 2.9 nM | IC90 [2, 12]: 27.3 nM | IC50 ([2]; read-out: IC50 (CI), 42 h treatment, Huh7.5, CI 95%): 2.87 nM | IC50 [3, 13]: 6.65 nM | IC50 [3, 14]: 3.17 nM | IC90 ([3]; Hepatitis E virus, GT1, Huh7.5, 42 h, read-out: IC90 (CI)): 52.8 nM | body weight [8]: No changes | HEV RNA in the feces (gt1 HEV (strain Sar-55)): rapid decline
